Laboratory results: US20250243180A1, “TARGETED PROTEIN DEGRADATION” (Monte Rosa Therapeutics AG, priority 2023, published 2025)
pIC50: −log10 of the molar value.

Assays:
[1] = system: Caspase-1 activity; assay: Caspase-1 activity in human monocyte-derived macrophages, LPS/MSU stimulation; assay type: cell-based; settings: 24 h pre-treatment, LPS + MSU 6 h, eight donors
Method: (§1) Human monocytes were enriched and isolated from a buffy coat of whole blood with a RosetteSep™ Human Monocyte Enrichment Cocktail (Cat.No. 15068, StemCell) and Ficoll-Plaque PLUS (Cat.No. H8889, Sigma). Monocytes were differentiated into macrophages by treatment with 100 ng/mL M-CSF for 6 days at 37° C., 5% CO2. Differentiated macrophages were seeded overnight (50,000 cells/well) in 100 μL of medium in a 96-well white-bottom plate at 37° C., 5% CO2. Cells were treated with a concentration range of MGD or the NLRP3 inhibitor selnoflast (Cat.No. HY-132831, MedChemExpress) for 24 h prior to stimulation with monosodium urate crystals (MSU). Macrophages were stimulated with […] lipopolysaccharide (LPS) and 0.2 mg/mL MSU for 6 h. Medium of stimulated macrophages were collected and assayed for caspase-1 activity directly (Promega G9951) as well as IL-1β (Promega W6010), according to manufacturer's instructions.
(§2) (a, b) Human monocyte-derived macrophages pre-treated with a dose-response of Compound 14 or selnoflast (NLRP3 inhibitor) for 24 h and stimulated with a combination of lipopolysaccharide (LPS) and monosodium urate crystals (MSU) for 6 h prior to supernatant collection. Monocytes were isolated from eight human donors. Caspase-1 (a) and IL-1β (b) in the supernatant are measured and data are expressed as percentage relative to mean values of DMSO conditions for each donor (technical triplicates). Means of eight donors are plotted and analyzed using a four-parameter logistic regression model.

[2] = system: New Zealand White rabbits, MSU crystal gout model; assay: In vivo rabbit gout model (intra-articular MSU): joint swelling and CD31 staining; settings: daily prophylactic treatment
Method: MSU crystals were prepared by dissolving uric acid (Aladdin, cat #U105582) in boiling water (1 g in 200 mL with 6 mL of 1 N NaOH). PH value was adjusted to 7.2 by HCl. The solution was stirred and cooled to room temperature and stored at 4° C. overnight. The precipitate was filtered with filter paper and dried under low heat to obtain MSU crystals. New Zealand White rabbits received an intra-articular injection of 1 mL of MSU crystals (50 mg/mL) into both knees (MSU group) or PBS (as vehicle, control group). n=10 for MSU groups; n=6 for PBS group.
For immunohistochemistry, bone sections were stained with anti-CD31 (Abcam #ab9498) diluted at 1:500. The nuclei were stained with hematoxylin. Slides were scanned using LEICA Aperio GT450 at 400× magnification. The number of positive blood vessels were counted blindly.
(a) To determine NEK7 degradation, spleens and peripheral blood mononuclear cells (PBMC) were analyzed by JESS for NEK7 and normalized to α-Tubulin from five representative animals. (b) The degree of joint swelling was determined by caliper measurements at the indicated time points. (c) Rabbit bone tissue sections were stained and quantified for anti-CD31 immunohistochemistry. Results expressed as mean±SEM. Statistical analysis was performed using two-way ANOVA. The difference was considered significant when p<0.05.

[3] = system: IL-1β; assay: IL-1β in human monocyte-derived macrophages, LPS/MSU stimulation; assay type: cell-based; settings: 24 h pre-treatment, LPS + MSU 6 h, eight donors
Method: as §1, §2

In the case of `CCN1CCC(S(=O)(=O)NC(=O)Nc2c3c(cc4c2CCC4)CCC3)CC1` [selnoflast, reference compound], the “Caspase-1 activity Imax” value [1] was 89%, the pIC50 ([1]; Homo sapiens, Macrophage) was 6.07 and the “CD31 staining in bone tissue” value [2] was “improvement”. The “joint swelling induced by intra-articular MSU injection” value [2] was “improvement”, the “IL-1β Imax” value [3] was 79% and the pIC50 ([3]; Homo sapiens, Macrophage) was 6.13.
